According to paper PMC8253220, “Molecular design, synthesis and in vitro biological evaluation of thienopyrimidine–hydroxamic acids as chimeric kinase HDAC inhibitors: a challenging approach to combat cancer” (Journal of Enzyme Inhibition and Medicinal Chemistry, 2021):
“And” between values parts separate entries of the source, which are not always exact repeats. Identical values can stand only once.

How the values were obtained:
Test in all cases: NCI one-dose screen
Format in all cases: cell-based, human
NCI-H322M = settings: NSCLC NCI-H322M, 10 µM single dose
How it was run: (§1)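 One concentration (10 μM) applied to each line of the full NCI-60 panel; percent growth compared against untreated cells.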

LOX IMVI = settings: Melanoma LOX IMVI, 10 µM single dose
How it was run: as §1

SW-620 = settings: Colon SW-620, 10 µM single dose
How it was run: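 Single 10 μM dose, NCI-60 panel; read-out = % growth vs untreated controls → % inhibition.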

CCRF-CEM = settings: Leukemia CCRF-CEM, 10 µM single dose
How it was run: as §1

SR = settings: Leukemia SR, 10 µM single dose
How it was run: as §1

CAKI-1 = settings: Renal CAKI-1, 10 µM single dose
How it was run: as §1

SK-OV-3 = settings: Ovarian SK-OV-3, 10 µM single dose
How it was run: as §1

RPMI-8226 = settings: Leukemia RPMI-8226, 10 µM single dose
How it was run: as §1

COLO 205 = settings: Colon COLO 205, 10 µM single dose
How it was run: as §1

IGROV1 = settings: Ovarian IGROV1, 10 µM single dose
How it was run: as §1

SNB-75 = tested on: SNB-75
How it was run: (§2)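 Each cell line received compound at 10 μM as part of the NCI one-dose protocol. Values reflect growth inhibition percent calculated from growth relative to untreated controls.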

RXF 393 = settings: Renal RXF 393, 10 µM single dose
How it was run: as §1

HL-60(TB) = settings: Leukemia HL-60(TB), 10 µM single dose
How it was run: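 At 10 μM, a single concentration, compounds were evaluated for antiproliferative effect in the NCI 60-line screen, with growth expressed relative to untreated control cells.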

UO-31 = tested on: UO-31
How it was run: as §2

OVCAR-4 = settings: Ovarian OVCAR-4, 10 µM single dose
How it was run: as §1

MDA-MB-435 = settings: Melanoma MDA-MB-435, 10 µM single dose
How it was run: as §1

SF-539 = settings: CNS SF-539, 10 µM single dose
How it was run: (§3)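 Percent growth inhibition, referenced to untreated control cells, was determined after a single 10 μM compound exposure in the NCI 60-cell-line anticancer screen.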

HCT-116 = settings: Colon HCT-116, 10 µM single dose
How it was run: as §1

SK-MEL-5 = settings: Melanoma SK-MEL-5, 10 µM single dose
How it was run: as §1

EKVX = settings: NSCLC EKVX
How it was run: as §2

HT29 = settings: Colon HT29, 10 µM single dose
How it was run: as §1

DU-145 = settings: Prostate DU-145, 10 µM single dose
How it was run: as §1

M14 = settings: Melanoma M14, 10 µM single dose
How it was run: as §1

HOP-62 = settings: NSCLC HOP-62, 10 µM single dose
How it was run: (§4)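 Following the standard NCI-60 protocol, compounds were applied once at 10 μM to all 60 cancer lines. Read-out is percent growth versus untreated controls, expressed as inhibition %.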

A549/ATCC = settings: NSCLC A549/ATCC, 10 µM single dose
How it was run: as §1

SK-MEL-2 = settings: Melanoma SK-MEL-2, 10 µM single dose
How it was run: as §4

SN12C = settings: Renal SN12C, 10 µM single dose
How it was run: as §1

NCI-H522 = tested on: NCI-H522
How it was run: as §2

OVCAR-5 = settings: Ovarian OVCAR-5, 10 µM single dose
How it was run: as §1

HCC-2998 = settings: Colon HCC-2998, 10 µM single dose
How it was run: as §1

SNB-19 = settings: CNS SNB-19, 10 µM single dose
How it was run: as §4

NCI-H226 = settings: NSCLC NCI-H226, 10 µM single dose
How it was run: as §2

786-0 = settings: Renal 786-0, 10 µM single dose
How it was run: as §1

MALME-3M = settings: Melanoma MALME-3M, 10 µM single dose
How it was run: as §1

SF-268 = settings: CNS SF-268, 10 µM single dose
How it was run: as §3

HS 578T = settings: Breast HS 578T, 10 µM single dose
How it was run: as §1

TK-10 = settings: Renal TK-10, 10 µM single dose
How it was run: as §1

Q: `Cc1c(C(=O)NO)sc2ncnc(Nc3ccc(Cl)cc3)c12` [Compound 15c, 4–(4-chlorophenylamino)-N-hydroxy-5-methylthieno[2,3-d]pyrimidine-6-carboxamide] was tested. Which “Growth Percent” value (NCI-H322M) did it give?
A: The value was 97.2% and 97.24%.

Q: What about the “Growth Percent” value (LOX IMVI) of the same compound?
A: Its value is 95.8% and 95.88%.

Q: What about the “Growth Percent” value (SW-620) of the same compound?
A: The value was 102.6% and 102.65%.

Q: What about the “Growth Percent” value (CCRF-CEM) of the same compound?
A: Its value is 103.4% and 103.44%.

Q: What about the “Growth Percent” value (SR) of the same compound?
A: Its value is 102.7% and 102.79%.

Q: And the “Growth Percent” value (CAKI-1)?
A: The value was 86.4% and 86.45%.

Q: And the “Growth Percent” value (SK-OV-3)?
A: The value was 93.4% and 93.42%.

Q: What about the “Growth Percent” value (RPMI-8226) of the same compound?
A: Its value is 104.3% and 104.38%.

Q: And the “Growth Percent” value (COLO 205)?
A: Its value is 116.7% and 116.75%.

Q: What about the “Growth Percent” value (IGROV1) of the same compound?
A: The value was 72.7% and 72.73%.

Q: What about the “Growth Percent” value (SNB-75; CNS SNB-75, 10 µM single dose) of the same compound?
A: The value was 79.5% and 79.59%.

Q: And the inhibition at 10 µM (SNB-75; Homo sapiens, CNS SNB-75, 10 μM)?
A: Its inhibition at 10 µM is 20.4%.

Q: And the “Growth Percent” value (RXF 393)?
A: Its value is 106.7% and 106.75%.

Q: And the “Growth Percent” value (HL-60(TB))?
A: Its value is 104.9% and 104.93%.

Q: And the inhibition at 10 µM (UO-31; Homo sapiens, renal UO-31, 10 μM)?
A: Its inhibition at 10 µM is 28.8%.

Q: And the “Growth Percent” value (UO-31; Renal UO-31, 10 µM single dose)?
A: The value was 71.2%.

Q: And the “Growth Percent” value (OVCAR-4)?
A: The value was 106.3% and 106.34%.

Q: And the “Growth Percent” value (MDA-MB-435)?
A: Its value is 102.4% and 102.42%.

Q: What about the “Growth Percent” value (SF-539) of the same compound?
A: The value was 104.0%.

Q: What about the “Growth Percent” value (HCT-116) of the same compound?
A: Its value is 100.9% and 100.92%.

Q: What about the “Growth Percent” value (SK-MEL-5) of the same compound?
A: Its value is 96.9% and 96.96%.

Q: What about the inhibition at 10 µM (EKVX; Homo sapiens, 10 μM) of the same compound?
A: Its inhibition at 10 µM is 20.6%.

Q: And the “Growth Percent” value (EKVX; 10 µM single dose)?
A: Its value is 79.4% and 79.43%.

Q: And the “Growth Percent” value (HT29)?
A: The value was 101.8% and 101.84%.

Q: And the “Growth Percent” value (DU-145)?
A: The value was 108.8% and 108.86%.

Q: What about the “Growth Percent” value (M14) of the same compound?
A: Its value is 107.8% and 107.86%.

Q: What about the “Growth Percent” value (HOP-62) of the same compound?
A: Its value is 92.8% and 92.81%.

Q: What about the “Growth Percent” value (A549/ATCC) of the same compound?
A: The value was 105.8% and 105.88%.

Q: What about the “Growth Percent” value (SK-MEL-2) of the same compound?
A: The value was 94.5% and 94.54%.

Q: And the “Growth Percent” value (SN12C)?
A: Its value is 98.6% and 98.63%.

Q: What about the inhibition at 10 µM (NCI-H522; Homo sapiens, NSCLC NCI-H522, 10 μM) of the same compound?
A: The inhibition at 10 µM was 25.4%.

Q: What about the “Growth Percent” value (NCI-H522; NSCLC NCI-H522, 10 µM single dose) of the same compound?
A: Its value is 74.5% and 74.57%.

Q: What about the “Growth Percent” value (OVCAR-5) of the same compound?
A: Its value is 107.6% and 107.61%.

Q: And the “Growth Percent” value (HCC-2998)?
A: The value was 115.4% and 115.42%.

Q: What about the “Growth Percent” value (SNB-19) of the same compound?
A: Its value is 94.8% and 94.85%.

Q: And the “Growth Percent” value (NCI-H226)?
A: The value was 85.6% and 85.66%.

Q: And the “Growth Percent” value (786-0)?
A: The value was 108.7% and 108.78%.

Q: And the “Growth Percent” value (MALME-3M)?
A: Its value is 102.3% and 102.31%.

Q: And the “Growth Percent” value (SF-268)?
A: The value was 94.8% and 94.84%.

Q: And the “Growth Percent” value (HS 578T)?
A: The value was 102.5% and 102.54%.

Q: And the “Growth Percent” value (TK-10)?
A: Its value is 154.5% and 154.58%.
